# Source: patent US6737383B1, “Herbicidal oxadiazolidines” (priority 1999, dated 2004)
# Tests used:
# barnyardgrass [1] = assay: Test C postemergence barnyardgrass; type: in vivo, Echinochloa crus-galli; details: 0 to 100 scale, 0 no effect, 100 complete control
# Method: (§1) Compounds evaluated in this test were formulated in a non-phytotoxic solvent mixture which included a surfactant and applied to plants that were grown for various periods of time before treatment (postemergence application). A mixture of sandy loam soil and greenhouse potting mix in a 60:40 ratio was used for the postemergence test.
# (§2) Plantings of these crops and weed species were adjusted to produce plants of appropriate size for the postemergence test. All plant species were grown using normal greenhouse practices. Crop and weed species include arrowleaf sida (Sida rhombifolia), barnyardgrass (Echinochloa crus-galli), cocklebur (Xanthium strumarium), common ragweed (Ambrosia elatior), corn (Zea mays), cotton (Gossypium hirsutum), eastern black nightshade (Solanum ptycanthum), fall panicum (Panicum dichotomiflorum), field bindweed (Convolvulus arvensis), giant foxtail (Setaria faberii), hairy beggarticks (Bidens pilosa), ivyleaf morningglory (Ipomoea hederacea), johnsongrass (Sorghum halepense), ladysthumb smartweed (Polygonum persicaria), lambsquarters (Chenopodium album), large crabgrass (Digitaria sanguinalis), purple nutsedge (Cyperus rotundus), redroot pigweed (Amaranthus retroflexus), soybean (Glycine max), surinam grass (Brachiaria decumbens), velvetleaf (Abutilon theophrasti) and wild poinsettia (Euphorbia heterophylla).
# (§3) Treated plants and untreated controls were maintained in a greenhouse for approximately 14, to 21 days, after which all treated plants were compared to untreated controls and visually evaluated. Plant response ratings, summarized in Table C, were based upon a 0 to 100 scale where 0 was no effect and 100 was complete control. A dash response (−) means no test result.
# cotton = assay: Test C postemergence cotton; type: in vivo, Gossypium hirsutum; details: 0 to 100 scale, 0 no effect, 100 complete control
# Method: as §1, §2, §3
# eastern black nightshade = assay: Test C postemergence eastern black nightshade; type: in vivo, Solanum ptycanthum; details: 0 to 100 scale, 0 no effect, 100 complete control
# In short: (§4)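 Foliar postemergence treatment of greenhouse plants grown in 60:40 sandy loam:potting mix; compounds delivered in non-phytotoxic solvent with surfactant. Evaluation is visual, 0–100, after ~14–21 d.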
# fall panicum = assay: Test C postemergence fall panicum; type: in vivo, Panicum dichotomiflorum; details: 0 to 100 scale, 0 no effect, 100 complete control
# In short: as §4
# field bindweed = assay: Test C postemergence field bindweed; type: in vivo, Convolvulus arvensis; details: 0 to 100 scale, 0 no effect, 100 complete control
# Method: as §1, §2, §3
# ivyleaf morningglory = assay: Test C postemergence ivyleaf morningglory; type: in vivo, Ipomoea hederacea; details: 0 to 100 scale, 0 no effect, 100 complete control
# In short: as §4
# ladysthumb smartweed = assay: Test C postemergence ladysthumb smartweed; type: in vivo, Polygonum persicaria; details: 0 to 100 scale, 0 no effect, 100 complete control
# Method: as §1, §2, §3
# lambsquarters = assay: Test C postemergence lambsquarters; type: in vivo, Chenopodium album; details: 0 to 100 scale, 0 no effect, 100 complete control
# Method: as §1, §2, §3
# redroot pigweed = assay: Test C postemergence redroot pigweed; type: in vivo, Amaranthus retroflexus; details: 0 to 100 scale, 0 no effect, 100 complete control
# In short: as §4
# soybean = assay: Test C postemergence soybean; type: in vivo, Glycine max; details: 0 to 100 scale, 0 no effect, 100 complete control
# Method: as §1, §2, §3
# velvetleaf [2] = assay: Test C postemergence velvetleaf; type: in vivo, Abutilon theophrasti; details: 0 to 100 scale, 0 no effect, 100 complete control
# In short: as §4
# barnyardgrass [3] = assay: Test A barnyardgrass; type: in vivo, Echinochloa crus-galli; details: 0 to 10 scale where 0 is no effect and 10 is complete control
# In short: (§5)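 Injury scored visually after about eleven greenhouse days against untreated plants, 0 = no effect, 10 = complete control. Compounds, formulated in surfactant-containing non-phytotoxic solvent, were applied as preemergence soil drench to sandy loam plantings and as postemergence runoff spray at the 1–2 leaf stage.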
# velvetleaf [4] = assay: Test A velvetleaf; type: in vivo, Abutilon theophrasti; details: 0 to 10 scale where 0 is no effect and 10 is complete control
# In short: as §5
# dallisgrass = assay: Test D dallisgrass; type: in vivo, Paspalum dilatatum; details: Rate 64 g/ha, Postemergence; 0 to 100 scale, 0 no injury, 100 complete control
# goosegrass = assay: Test D goosegrass; type: in vivo, Eleusine indica; details: Rate 64 g/ha, Postemergence; 0 to 100 scale, 0 no injury, 100 complete control
# sandbur = assay: Test D sandbur; type: in vivo, Cenchrus echinatus; details: Rate 64 g/ha, Postemergence; 0 to 100 scale, 0 no injury, 100 complete control
# tall mallow = assay: Test D tall mallow; type: in vivo, Malva sylvestris; details: Rate 64 g/ha, Postemergence; 0 to 100 scale, 0 no injury, 100 complete control
# Green foxtail [5] = assay: Test D green foxtail; type: in vivo; details: Rate 64 g/ha, Postemergence; 0 to 100 scale, 0 no injury, 100 complete control
# Green foxtail [6] = assay: Test D green foxtail; type: in vivo; details: Rate 64 g/ha, Postemergence; 0 to 100 scale, 0 no injury, 100 complete control; remark: listed apart in the source
compound,measurement,setting,value
C=CCn1c(=O)on(C(=O)N(c2ccccc2)C(C)C)c1=O [Compound 93],"Plant response rating, Barnyardgrass",barnyardgrass [1]; Rate 140 g/ha,70
same,"Plant response rating, Barnyardgrass",barnyardgrass [1]; Rate 280 g/ha,90
same,"Plant response rating, Barnyardgrass",barnyardgrass [1]; Rate 560 g/ha,90
same,"Plant response rating, Barnyardgrass",barnyardgrass [1]; Rate 1120 g/ha,95
same,Plant response rating Cotton,cotton; Rate 140 g/ha,15
same,Plant response rating Cotton,cotton; Rate 280 g/ha,30
same,Plant response rating Cotton,cotton; Rate 560 g/ha,70
same,Plant response rating Cotton,cotton; Rate 1120 g/ha,85
same,Plant response rating E. blacknightsh,eastern black nightshade; Rate 140 g/ha,10
same,Plant response rating E. blacknightsh,eastern black nightshade; Rate 280 g/ha,40
same,Plant response rating E. blacknightsh,eastern black nightshade; Rate 1120 g/ha,85
same,Plant response rating Fall panicum,fall panicum; Rate 140 g/ha,0
same,Plant response rating Fall panicum,fall panicum; Rate 280 g/ha,80
same,Plant response rating Fall panicum,fall panicum; Rate 560 g/ha,90
same,Plant response rating Fall panicum,fall panicum; Rate 1120 g/ha,90
same,Plant response rating Field bindweed,field bindweed; Rate 140 g/ha,0
same,Plant response rating Field bindweed,field bindweed; Rate 280 g/ha,0
same,Plant response rating Field bindweed,field bindweed; Rate 560 g/ha,0
same,Plant response rating Field bindweed,field bindweed; Rate 1120 g/ha,50
same,Plant response rating I. morningglory,ivyleaf morningglory; Rate 140 g/ha,5
same,Plant response rating I. morningglory,ivyleaf morningglory; Rate 280 g/ha,10
same,Plant response rating I. morningglory,ivyleaf morningglory; Rate 560 g/ha,10
same,Plant response rating I. morningglory,ivyleaf morningglory; Rate 1120 g/ha,70
same,Plant response rating Ladysthumb,ladysthumb smartweed; Rate 140 g/ha,0
same,Plant response rating Ladysthumb,ladysthumb smartweed; Rate 280 g/ha,0
same,Plant response rating Ladysthumb,ladysthumb smartweed; Rate 560 g/ha,80
same,"Plant response rating, Lambsquarters",lambsquarters; Rate 140 g/ha,10
same,"Plant response rating, Lambsquarters",lambsquarters; Rate 280 g/ha,10
same,"Plant response rating, Lambsquarters",lambsquarters; Rate 560 g/ha,10
same,"Plant response rating, Lambsquarters",lambsquarters; Rate 1120 g/ha,40
same,"Plant response rating, Redroot pigweed",redroot pigweed; Rate 140 g/ha,5
same,"Plant response rating, Redroot pigweed",redroot pigweed; Rate 560 g/ha,10
same,"Plant response rating, Redroot pigweed",redroot pigweed; Rate 1120 g/ha,85
same,"Plant response rating, Soybean",soybean; Rate 140 g/ha,40
same,"Plant response rating, Soybean",soybean; Rate 280 g/ha,60
same,"Plant response rating, Soybean",soybean; Rate 560 g/ha,80
same,"Plant response rating, Soybean",soybean; Rate 1120 g/ha,85
same,"Plant response rating, Velvetleaf",velvetleaf [2]; Rate 140 g/ha,0
same,"Plant response rating, Velvetleaf",velvetleaf [2]; Rate 280 g/ha,5
same,"Plant response rating, Velvetleaf",velvetleaf [2]; Rate 560 g/ha,40
same,"Plant response rating, Velvetleaf",velvetleaf [2]; Rate 1120 g/ha,70
CC(C)N(C(=O)n1oc(=O)n(C2CCCCC2C(F)(F)F)c1=O)c1ccc(F)cc1 (centres unmarked) [Compound 99],"Plant response rating, Barnyardgrass","barnyardgrass [3]; Postemergence, Rate 1000 g/ha",7
same,"Plant response rating, Barnyardgrass","barnyardgrass [3]; Pre-emergence, Rate 2000 g/ha",9
same,"Plant response rating, Velvetleaf","velvetleaf [4]; Postemergence, Rate 1000 g/ha",2
same,"Plant response rating, Velvetleaf","velvetleaf [4]; Pre-emergence, Rate 2000 g/ha",3
CC(C)N(C(=O)n1oc(=O)n(Cc2cccs2)c1=O)c1ccccc1 [Compound 103],"Plant response rating, Barnyardgrass",barnyardgrass [1]; Rate 140 g/ha,0
same,"Plant response rating, Barnyardgrass",barnyardgrass [1]; Rate 280 g/ha,0
same,"Plant response rating, Barnyardgrass",barnyardgrass [1]; Rate 560 g/ha,10
same,"Plant response rating, Barnyardgrass",barnyardgrass [1]; Rate 1120 g/ha,80
same,Plant response rating Cotton,cotton; Rate 140 g/ha,0
same,Plant response rating Cotton,cotton; Rate 280 g/ha,20
same,Plant response rating Cotton,cotton; Rate 560 g/ha,40
same,Plant response rating Cotton,cotton; Rate 1120 g/ha,80
same,Plant response rating E. blacknightsh,eastern black nightshade; Rate 140 g/ha,0
same,Plant response rating E. blacknightsh,eastern black nightshade; Rate 280 g/ha,0
same,Plant response rating E. blacknightsh,eastern black nightshade; Rate 560 g/ha,0
same,Plant response rating E. blacknightsh,eastern black nightshade; Rate 1120 g/ha,0
same,Plant response rating Fall panicum,fall panicum; Rate 140 g/ha,0
same,Plant response rating Fall panicum,fall panicum; Rate 280 g/ha,0
same,Plant response rating Fall panicum,fall panicum; Rate 560 g/ha,0
same,Plant response rating Fall panicum,fall panicum; Rate 1120 g/ha,30
same,Plant response rating Field bindweed,field bindweed; Rate 140 g/ha,0
same,Plant response rating Field bindweed,field bindweed; Rate 280 g/ha,0
same,Plant response rating Field bindweed,field bindweed; Rate 560 g/ha,0
same,Plant response rating Field bindweed,field bindweed; Rate 1120 g/ha,0
same,Plant response rating I. morningglory,ivyleaf morningglory; Rate 140 g/ha,0
same,Plant response rating I. morningglory,ivyleaf morningglory; Rate 280 g/ha,0
same,Plant response rating I. morningglory,ivyleaf morningglory; Rate 560 g/ha,0
same,Plant response rating I. morningglory,ivyleaf morningglory; Rate 1120 g/ha,10
same,Plant response rating Ladysthumb,ladysthumb smartweed; Rate 140 g/ha,0
same,Plant response rating Ladysthumb,ladysthumb smartweed; Rate 280 g/ha,0
same,Plant response rating Ladysthumb,ladysthumb smartweed; Rate 560 g/ha,10
same,Plant response rating Ladysthumb,ladysthumb smartweed; Rate 1120 g/ha,10
same,"Plant response rating, Lambsquarters",lambsquarters; Rate 140 g/ha,0
same,"Plant response rating, Lambsquarters",lambsquarters; Rate 280 g/ha,5
same,"Plant response rating, Lambsquarters",lambsquarters; Rate 560 g/ha,5
same,"Plant response rating, Lambsquarters",lambsquarters; Rate 1120 g/ha,20
same,"Plant response rating, Redroot pigweed",redroot pigweed; Rate 140 g/ha,0
same,"Plant response rating, Redroot pigweed",redroot pigweed; Rate 280 g/ha,60
same,"Plant response rating, Redroot pigweed",redroot pigweed; Rate 560 g/ha,70
same,"Plant response rating, Redroot pigweed",redroot pigweed; Rate 1120 g/ha,85
same,"Plant response rating, Soybean",soybean; Rate 140 g/ha,30
same,"Plant response rating, Soybean",soybean; Rate 280 g/ha,30
same,"Plant response rating, Soybean",soybean; Rate 560 g/ha,35
same,"Plant response rating, Soybean",soybean; Rate 1120 g/ha,35
same,"Plant response rating, Velvetleaf",velvetleaf [2]; Rate 140 g/ha,0
same,"Plant response rating, Velvetleaf",velvetleaf [2]; Rate 280 g/ha,5
same,"Plant response rating, Velvetleaf",velvetleaf [2]; Rate 560 g/ha,10
same,"Plant response rating, Velvetleaf",velvetleaf [2]; Rate 1120 g/ha,45
CC(C)Cn1c(=O)on(C(=O)N(c2ccc(F)cc2)C(C)C)c1=O [Compound 169],"Plant response rating, Dallisgrass",dallisgrass,90
same,"Plant response rating, Goosegrass",goosegrass,100
same,Sandbur plant response rating,sandbur,40
same,Tall Mallow plant response rating,tall mallow,0
same,"Plant response rating, Green foxtail",Green foxtail [5],100
same,Green foxtail plant response rating,Green foxtail [6],100
